Measured values: patent US9085576B2 (AMGEN INC., priority 2013, dated 2015)
Counter-ions that a name gives are not always drawn.

target: Cathepsin D (Cat D) (Homo sapiens (Human), UniProt P07339); assay: In vitro enzymatic Cathepsin D (Cat D) FRET assay; type: biochemical; conditions: read-out: CatD IC50
Sequence (P07339 65-412, species assumed): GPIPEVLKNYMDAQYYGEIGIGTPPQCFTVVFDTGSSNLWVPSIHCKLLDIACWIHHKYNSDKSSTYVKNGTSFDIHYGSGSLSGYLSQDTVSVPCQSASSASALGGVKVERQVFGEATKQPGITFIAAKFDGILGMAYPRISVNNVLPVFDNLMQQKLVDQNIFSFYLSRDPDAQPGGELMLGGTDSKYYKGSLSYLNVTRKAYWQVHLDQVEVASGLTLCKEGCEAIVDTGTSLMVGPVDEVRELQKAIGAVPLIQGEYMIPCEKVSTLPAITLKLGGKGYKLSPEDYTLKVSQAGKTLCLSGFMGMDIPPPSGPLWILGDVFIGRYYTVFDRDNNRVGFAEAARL

Structure (SMILES)	IC50 [µM]
COc1c(F)cc(NC(=O)c2ccc(Cl)cn2)cc1[C@@]1(CF)N=C(N)O[C@@H]2C[C@@H]21 (racemic) [Example 31, N-(3-([(1R,S),(5S,R),(6R,S)]-3-amino-5-(fluoromethyl)-2-oxa-4-azabicyclo[4.1.0]hept-3-en-5-yl)-5-fluoro-4-methoxyphenyl)-5-chloropicolinamide]	339
C#CCOc1ccc(C(=O)Nc2ccc(F)c([C@@]3(CF)N=C(N)O[C@@H]4C[C@@H]43)c2)nc1 [Example 205, N-(3-((1R,5S,6R)-3-amino-5-(fluoromethyl)-2-oxa-4-azabicyclo[4.1.0]hept-3-en-5-yl)-4-fluorophenyl)-5-(prop-2-yn-1-yloxy)picolinamide]	821
Cc1cc(NC(=O)c2ccc(Cl)cn2)cc([C@@]2(C(F)F)N=C(N)O[C@@H]3C[C@@H]32)c1F [Example 121, N-(3-((1R,5S,6R)-3-amino-5-(difluoromethyl)-2-oxa-4-azabicyclo[4.1.0]hept-3-en-5-yl)-4-fluoro-5-methylphenyl)-5-chloropicolinamide]	206
NC1=N[C@@](c2cc(NC3(c4ccc(Cl)cn4)COC3)ccc2F)(C(F)F)[C@H]2C[C@H]2O1 [Example 332, (1R,5S,6R)-5-(5-((3-(5-chloropyridin-2-yl)oxetan-3-yl)amino)-2-fluorophenyl)-5-(difluoromethyl)-2-oxa-4-azabicyclo[4.1.0]hept-3-en-3-amine]	163
Cc1cc(C#N)cnc1C(=O)Nc1cc(C)c(F)c([C@@]2(C(F)F)N=C(N)O[C@@H]3C[C@@H]32)c1 [Example 132, N-(3-((1R,5S,6R)-3-amino-5-(difluoromethyl)-2-oxa-4-azabicyclo[4.1.0]hept-3-en-5-yl)-4-fluoro-5-methylphenyl)-5-cyano-3-methylpicolinamide]	725
NC1=N[C@@](c2cc(NC(=O)c3coc(CF)n3)ccc2F)(C(F)F)[C@H]2C[C@H]2O1 [Example 168, N-(3-((1R,5S,6R)-3-amino-5-(difluoromethyl)-2-oxa-4-azabicyclo[4.1.0]hept-3-en-5-yl)-4-fluorophenyl)-2-(fluoromethyl)oxazole-4-carboxamide]	56.8
COc1ccc(C(=O)Nc2cc(F)c(F)c([C@@]3(CF)N=C(N)O[C@@H]4C[C@@H]43)c2)nc1 [Example 41, N-(3-((1R,5S,6R)-3-amino-5-(fluoromethyl)-2-oxa-4-azabicyclo[4.1.0]hept-3-en-5-yl)-4,5-difluorophenyl)-5-methoxypicolinamide]	238

Now from value to molecule:

IC50 [µM]	Structure (SMILES)
2620	N#Cc1ccc(C(=O)Nc2cc(F)c(F)c([C@]3(CF)N=C(N)O[C@H]4C[C@H]43)c2)nc1 [Example 38, N-(3-((1S,55,6S) 3-amino-5-(fluoromethyl)-2-oxa-4-azabicyclo[4.1.0]hept-3-en-5-yl)-4,5-difluorophenyl)-5-cyanopicolinamide]
348	N#Cc1ccc(C(=O)Nc2cnc(F)c([C@]3(C(F)F)N=C(N)O[C@H]4C[C@H]43)c2)nc1 (racemic) [Example 75, N-(5-([1(R,S),5(S,R),6(R,S)]-3-amino-5-(difluoromethyl)-2-oxa-4-azabicyclo[4.1.0]hept-3-en-5-yl)-6-fluoropyridin-3-yl)-5-cyanopicolinamide]
1290	N#Cc1cnc(C(=O)Nc2ccc(F)c([C@]3(C(F)F)N=C(N)O[C@H]4C[C@H]43)c2)c(Cl)c1 [Example 67, N-(3-((1S,5R,6S)-3-amino-5-(difluoromethyl)-2-oxa-4-azabicyclo[4.1.0]hept-3-en-5-yl)-4-fluorophenyl)-3-chloro-5-cyanopicolinamide]
1160	N#Cc1ccc(C(=O)Nc2ccc(Cl)c([C@@]3(C(F)F)N=C(N)O[C@@H]4C[C@@H]43)c2)nc1 (racemic) [Example 98, N-(3-(((1R,S), (5S,R), (6R,S))-3-amino-5-(difluoromethyl)-2-oxa-4-azabicyclo[4.1.0]hept-3-en-5-yl)-4-chlorophenyl)-5-cyanopicolinamide trifluoroacetate]
